The values that follow come from patent US7166609B2, “Pyrimidine-4,6-dicarboxylic acid diamides for selectively inhibiting collagenases” (Sanofi-Aventis Deutschland GmbH, priority 2002, dated 2007).

What is called IC50 is the concentration that gives 50% inhibition.

One test addresses T1, catalytic domain of human collagenase 3 (MMP-13) (Homo sapiens, UniProt P45452).
T1 construct: Determining the enzyme activity of the catalytic domain of human collagenase 3 (MMP-13); purchased INVITEK, Berlin 30 100 803
Nature of the test: Enzyme activity of the catalytic domain of human collagenase 3 (MMP-13), fluorogenic substrate. It is filed as biochemical.
Details: not given
On the procedure: Determining the enzyme activity of the catalytic domain of human collagenase 3 (MMP-13).
Activating the proenzyme:
2 parts by volume of proenzyme are incubated with 1 part by volume of APMA solution at 37° C. for 1.5 hours. The APMA solution is prepared from a 10 mmol/L solution of p-aminophenylmercuric acetate in 0.1 mmol/L NaOH by diluting with 3 parts by volume of tris/HCl buffer, pH 7.5 (see below). The pH is adjusted to between 7.0 and 7.5 by adding 1 mmol/L HCl. After the enzyme has been activated, it is diluted to a concentration of 1.67 μg/ml using the tris/HCl buffer.
In order to measure the enzyme activity, 10 μL of enzyme solution are incubated for 15 minutes with 10 μL of a 3% (v/v) buffered solution of dimethyl sulfoxide (reaction 1). In order to measure the enzyme inhibitor activity, 10 μL of enzyme solution are incubated with 10 μL of a 3% (v/v) buffered solution of dimethyl sulfoxide containing the enzyme inhibitor (reaction 2).
In the case of both reaction 1 and reaction 2, the enzyme reaction is monitored by fluorescence spectroscopy (328 nm (extinction)/393 nm (emission)) after adding 10 μL of a 3% (v/v) aqueous solution of dimethyl sulfoxide containing 0.75 mmol of the substrate/L.
The enzyme activity is depicted as increase in extinction/minute.
The effect of the inhibitor is calculated as a percentage inhibition using the following formula: % inhibition=100−[(increase in extinction/minute in reaction 2)/(increase in extinction/minute in reaction 1)×100].
The IC50, i.e. the inhibitor concentration which is required for inhibiting the enzyme activity by 50%, is determined graphically by plotting the percentage inhibitions at different inhibitor concentrations.
The buffer solution contains 0.05% Brij (Sigma, Deisenhofen, Germany) and 0.1 mol of tris/HCl/L, 0.1 mol of NaCl/L and 0.01 mol of CaCl2/L (pH=7.5). The enzyme solution contains 1.67 μg of the enzyme domain/mL.
The substrate solution contains 0.75 mmol/L of the fluorogenic substrate (7-methoxycoumarin-4-yl)acetyl-Pro-Leu-Gly-Leu-3-(2′,4′-dinitrophenyl)-L-2,3-diaminopropionyl-Ala-Arg-NH2 (Bachem, Heidelberg, Germany).
The molecule `Cc1cc(CNC(=O)c2cc(C(=O)NCc3ccc(C(=O)N4CCC(=O)CC4)cc3)ncn2)ccc1F` [Example 65] had an IC50 of 15 nM.
`COc1cccc(CNC(=O)c2cc(C(=O)NCc3ccc(C(=O)N4CCC(=O)CC4)cc3)ncn2)c1` [Example 64] had an IC50 of 10 nM.

Staying with this test, now noted: catalytic domain, activated proenzyme, pH 7.5; read-out: IC50 MMP13.
For `Cc1cc(CNC(=O)c2cc(C(=O)NCc3ccc(C(=O)NCCN4CCOCC4)cc3)ncn2)ccc1F` [Example 105], the IC50 was found to be 23 nM.
With `COc1cccc(CNC(=O)c2cc(C(=O)NCc3ccc(NC(=O)NS(C)(=O)=O)cc3)ncn2)c1` [Example 101], the IC50 was determined as 2 nM.
With `O=C1CN(C(=O)c2ccc(CNC(=O)c3cc(C(=O)NCc4ccc5c(c4)CCO5)ncn3)cc2)CCN1` [Example 74], the IC50 came out at 30 nM.
For the molecule `Cc1cc(CNC(=O)c2cc(C(=O)NCc3ccc(C(=O)N4CCC(O)CC4)cc3)ncn2)ccc1F` [Example 69], the IC50 was 32 nM.
Turning to `Cc1cc(CNC(=O)c2cc(C(=O)NCc3ccc(C(=O)NO)cc3)ncn2)ccc1F` [Example 93], the IC50 was 20 nM.
The same measure, in the same setting: the value for `COc1cccc(CNC(=O)c2cc(C(=O)NCc3ccc(C(=O)NC(C)(C)C)cc3)ncn2)c1` [Example 96] was 50 nM.
On the same count and under the same terms, in the case of `COc1cccc(CNC(=O)c2cc(C(=O)NCc3ccc(C(=O)N4CCSCC4)cc3)ncn2)c1` [Example 71] it was 9 nM; in that of `COc1cccc(CNC(=O)c2cc(C(=O)NCc3ccc(C(=O)NCCN4CCOCC4)cc3)ncn2)c1` [Example 36], 10 nM; in that of `O=C(NCc1ccc(C(=O)N2CCOCC2)cc1)c1cc(C(=O)NCc2ccc(F)c(Cl)c2)ncn1` [Example 154], 22 nM.
Still for that read-out and setting: in the case of `CCN(CC)C(=O)c1ccc(CNC(=O)c2cc(C(=O)NCc3ccc(F)c(Cl)c3)ncn2)cc1` [Example 153] it was 15 nM; in that of `O=C(NCCN1CCOCC1)c1ccc(CNC(=O)c2cc(C(=O)NCc3ccc4c(c3)CCO4)ncn2)cc1` [Example 122], 43 nM.
Consider `COc1cccc(CNC(=O)c2cc(C(=O)NCc3ccc(C(=O)N4CCC(O)CC4)cc3)ncn2)c1` [Example 67], for which the IC50 turned out to be 15 nM.
Same read-out and setting: the value for `Cc1cc(CNC(=O)c2cc(C(=O)NCc3ccc(C(=O)N4CCSCC4)cc3)ncn2)ccc1F` [Example 70] was 24 nM; that for `O=C(NCc1ccc2c(c1)CCO2)c1cc(C(=O)NCc2cccs2)ncn1` [Example 39] was 30 nM.
As to `O=C(NCc1ccc2c(c1)CCO2)c1cc(C(=O)NCc2cc(Cl)cs2)ncn1` [Example 129], the IC50 worked out at 22 nM.
On to `COc1cccc(CNC(=O)c2cc(C(=O)NCc3ccc(C(=O)NC#N)cc3)ncn2)c1` [Example 86], for which the IC50 was determined as 2.5 nM.
Take `COc1cccc(CNC(=O)c2cc(C(=O)NCc3ccc(C(=O)N4CCN(c5ccncc5)CC4)cc3)ncn2)c1` [Example 115]: the IC50 is 20 nM.
As for `Cc1cc(CNC(=O)c2cc(C(=O)NCc3ccc(C(=O)NCCN4CCCC4)cc3)ncn2)ccc1F` [Example 99], the IC50 stood at 50 nM.
With `O=C(NCc1ccc(C(=O)N2CCSCC2)cc1)c1cc(C(=O)NCc2ccc3c(c2)CCO3)ncn1` [Example 72], the IC50 was 10 nM.
For the molecule `COc1cccc(CNC(=O)c2cc(C(=O)NCc3ccc(NC(=O)NC(=O)C4CCCCC4)cc3)ncn2)c1` [Example 125], the IC50 amounted to 4 nM.
With `COc1cccc(CNC(=O)c2cc(C(=O)NCc3ccc(NC(=O)NC(=O)c4cccnc4)cc3)ncn2)c1` [Example 126], the IC50 was 2.3 nM.
Take `COc1cccc(CNC(=O)c2cc(C(=O)NCc3ccc(NC(=O)OC(C)C)cc3)ncn2)c1` [Example 6]: the IC50 worked out at 20 nM.
For the molecule `O=C(NCc1ccc(OCCN2CCOCC2)cc1)c1cc(C(=O)NCc2ccc3c(c2)CCO3)ncn1` [Example 135], the IC50 stood at 20 nM.
Regarding `COc1cccc(CNC(=O)c2cc(C(=O)NCc3ccc(NC(=O)NC(=O)c4ccccc4)cc3)ncn2)c1` [Example 147], the IC50 came out at 3 nM.
In the case of `CCN(CC)C(=O)c1ccc(CNC(=O)c2cc(C(=O)NCc3cccc(OC)c3)ncn2)cc1` [Example 3, Pyrimidine-4,6-dicarboxylic acid 4-(4-diethylcarbamoylbenzylamide) 6-(3-methoxybenzylamide)], the IC50 was found to be 4 nM.
As to `CCCNC(=O)c1ccc(CNC(=O)c2cc(C(=O)NCc3cccc(OC)c3)ncn2)cc1` [Example 62], the IC50 is 13 nM.
In the case of `COc1cccc(CNC(=O)c2cc(C(=O)NCc3ccc(NC(=O)NS(=O)(=O)c4ccc(C)cc4)cc3)ncn2)c1` [Example 118], the IC50 was 2.4 nM.
As to `O=C(NCc1ccc(C(=O)N2CCOCC2)cc1)c1cc(C(=O)NCc2ccc3c(c2)CCO3)ncn1` [Example 5, Pyrimidine-4,6-dicarboxylic acid 4-[(2,3-dihydrobenzofuran-5-ylmethyl)amide]6-[4-(morpholine-4-carbonyl)benzylamide]], the IC50 is 8 nM.
Take `COc1cccc(CNC(=O)c2cc(C(=O)NCc3ccc(C(=O)N4CCOCC4)cc3)ncn2)c1` [Example 151]: the IC50 worked out at 9 nM.
Consider `COc1cccc(CNC(=O)c2cc(C(=O)NCc3ccc(NC(=O)NC(C)(C)C)cc3)ncn2)c1` [Example 138], for which the IC50 is 50 nM.
For `COc1cccc(CNC(=O)c2cc(C(=O)NCc3ccc(C(=O)NO)cc3)ncn2)c1` [Example 89], the IC50 was determined as 18 nM.
`O=C(NCCO)c1ccc(CNC(=O)c2cc(C(=O)NCc3ccc4c(c3)CCO4)ncn2)cc1` [Example 75a]: the IC50 came out at 34 nM.
The same measure, in the same setting: the value for `Cc1cc(CNC(=O)c2cc(C(=O)NCc3ccc(C(=O)N4CCNC(=O)C4)cc3)ncn2)ccc1F` [Example 75] was 70 nM; that for `Cc1cc(CNC(=O)c2cc(C(=O)NCc3ccc4c(c3)OCCN4C)ncn2)ccc1F` [Example 112] was 45 nM; that for `O=C(NCc1ccncc1)c1cc(C(=O)NCc2ccc3c(c2)CCO3)ncn1` [Example 4, Pyrimidine-4,6-dicarboxylic acid4-[(2,3-dihydrobenzofuran-5-ylmethyl)amide] 6-[(pyridin-4-ylmethyl)amide]] was 20 nM.
In the case of `CC#CCOC(=O)Nc1ccc(CNC(=O)c2cc(C(=O)NCc3cccc(OC)c3)ncn2)cc1` [Example 139], the IC50 was determined as 10 nM.
Regarding `Cc1cc(CNC(=O)c2cc(C(=O)NCc3ccc(C(=O)NC#N)cc3)ncn2)ccc1F` [Example 78], the IC50 was found to be 3 nM.
In the case of `COc1cccc(CNC(=O)c2cc(C(=O)NCc3cccc(NC(=O)OC(C)C)c3)ncn2)c1` [Example 150], the IC50 came to 80 nM.
In the case of `O=C(NCc1cccnc1)c1cc(C(=O)NCc2ccc3c(c2)OCCO3)ncn1` [Example 44], the IC50 is 200 nM.
On to `CN1CCN(C(=O)c2ccc(CNC(=O)c3cc(C(=O)NCc4ccc5c(c4)CCO5)ncn3)cc2)CC1` [Example 119], for which the 50% inhibitory concentration (IC50) stood at 35 nM.
Same read-out and setting: the value for `COc1cccc(CNC(=O)c2cc(C(=O)NCc3ccc(C(=O)N4CCNC(=O)C4)cc3)ncn2)c1` [Example 73] was 25 nM.
In the case of `CS(=O)(=O)NC(=O)Nc1ccc(CNC(=O)c2cc(C(=O)NCc3ccc4c(c3)CCO4)ncn2)cc1` [Example 84], the IC50 is 3.2 nM.
In the case of `CS(=O)(=O)NC(=O)Nc1ccc(CNC(=O)c2cc(C(=O)NCc3ccc(F)c(Cl)c3)ncn2)cc1` [Example 63], the IC50 came out at 9 nM.
On to `C#CCOC(=O)Nc1ccc(CNC(=O)c2cc(C(=O)NCc3cccc(OC)c3)ncn2)cc1` [Example 144], for which the IC50 came to 9 nM.
The same measure, in the same setting: the value for `COc1cccc(CNC(=O)c2cc(C(=O)NCc3ccc(NC(=O)NC(=O)C(C)C)cc3)ncn2)c1` [Example 127] was 3.3 nM; that for `COc1cccc(CNC(=O)c2cc(C(=O)NCc3ccc(C(=O)NC4CCNCC4)cc3)ncn2)c1` [Example 109] was 50 nM.
Consider `COc1cccc(CNC(=O)c2cc(C(=O)NCc3ccc(NC(=O)Nc4cc(Cl)nc(Cl)c4)cc3)ncn2)c1` [Example 137], for which the IC50 turned out to be 40 nM.
With `Cc1cc(CNC(=O)c2cc(C(=O)NCc3ccc(NC(=O)NS(C)(=O)=O)cc3)ncn2)ccc1F` [Example 83], the IC50 is 5 nM.
For the molecule `O=C(O)CNC(=O)c1ccc(CNC(=O)c2cc(C(=O)NCc3ccc4c(c3)CCO4)ncn2)cc1` [Example 98], the IC50 was found to be 20 nM.
Same read-out and setting: in the case of `O=C(NCc1ccc(C(=O)N2CCC(O)CC2)cc1)c1cc(C(=O)NCc2ccc3c(c2)CCO3)ncn1` [Example 68] it was 22 nM; in that of `COc1cccc(CNC(=O)c2cc(C(=O)NCc3cccc(NC(=O)NS(C)(=O)=O)c3)ncn2)c1` [Example 88], 33 nM; in that of `COc1cccc(CNC(=O)c2cc(C(=O)NCc3ccc(C(=O)N4CCN(C)CC4)cc3)ncn2)c1` [Example 114], 50 nM.
